{"source": "patent US10525110B2", "about": "“Methods for inducing partial apoptosis using caspase polypeptides” (Bellicum Pharmaceuticals, Inc., priority 2013, dated 2020)", "molecules": {"B1": {"name": "F404Y: chimeric modified caspase-9 polypeptide (protein)", "chain": "VDGFGDVGALESLRGNADLAYILSMEPCGHCLIINNVNFCRESGLRTRTGSNIDCEKLRRRFSSLHFMVEVKGDLTAKKMVLALLELARQDHGALDCCVVVILSHGCQASHLQFPGAVYGTDGCPVSVEKIVNIFNGTSCPSLGGKPKLFFIQACGGEQKDHGFEVASTSPEDESPGSNPEPDATPFQEGLRTFDQLDAISSLPTPSDIFVSYSTFPGFVSWRDPKSGSWYVETLDDIFEQWAHSEDLQSLLLRVANAVSVKGIYKQMPGCYNFLRKKLFFKTSASRA"}, "B2": {"name": "F404W: chimeric modified caspase-9 polypeptide (protein)", "chain": "B1 chain with Y272W"}, "B3": {"name": "F406T: chimeric modified caspase-9 polypeptide (protein)", "chain": "B1 chain with Y272F, F274T"}, "B4": {"name": "F406L: chimeric modified caspase-9 polypeptide (protein)", "chain": "B1 chain with Y272F, F274L"}, "B5": {"name": "S144A: chimeric modified caspase-9 polypeptide (protein)", "chain": "B1 chain with S12A, Y272F"}, "B6": {"name": "D330N: chimeric modified caspase-9 polypeptide (protein)", "chain": "B1 chain with D198N, Y272F"}, "B7": {"name": "D330V: chimeric modified caspase-9 polypeptide (protein)", "chain": "B1 chain with D198V, Y272F"}, "B8": {"name": "D330G: chimeric modified caspase-9 polypeptide (protein)", "chain": "B1 chain with D198G, Y272F"}, "B9": {"name": "D330S: chimeric modified caspase-9 polypeptide (protein)", "chain": "B1 chain with D198S, Y272F"}}, "key": {"[1]": {"test": "Phase I study of AP1903 in healthy volunteers", "format": "in vivo", "conditions": "male, human, plasma, intravenous, 0.4 mg/kg; reached within 15-30 min", "experimental": "FIG. 49(A-B) provides the results of a dose-escalation study in normal male volunteers. FIG. 49A is a line graph and 49B is a chart. Healthy volunteers were infused with the indicated doses of AP1903 and at various time points, serum levels of AP1903 were measured using HPLC analysis.\nIn a previous Phase I study of AP1903, 24 healthy volunteers were treated with single doses of AP1903 for Injection at dose levels of 0.01, 0.05, 0.1, 0.5 and 1.0 mg/kg infused IV over 2 hours. […] Iuliucci J D, et al., J Clin Pharmacol. 41: 870-9, 2001."}, "CD3+ΔCD19+ cells": {"tested_on": "CD3+ΔCD19+ cells", "test": "CASPALLO phase 1 trial: AP1903 in patients with GvHD after iCasp9 T cell infusion", "format": "in vivo, human"}, "human CD3+CD19+ T cells": {"tested_on": "human CD3+CD19+ T cells", "test": "AP1903 dose-dependent elimination in vivo of iCasp9-transduced T cells in NSG mice", "design": "species or system immune deficient mice (NSG)", "conditions": "i.p., wild-type iCasp9-transduced T cells, 24 hours", "experimental": "(§1) FIG. 65A-B: AP1903 dose-dependent elimination in vivo of T cells transduced with wild-type iCasp9. T cells were transduced with SFG-iCasp9-2A-ΔCD19 retrovirus and injected i.v. into immune deficient mice (NSG). After 24 hours, mice were injected i.p. with AP1903 (0-5 mg/kg). After an additional 24 hours, mice were sacrificed and lymphocytes from the spleen (65A) and peripheral blood (65B) were isolated and analyzed by flow cytometry for the frequency of human CD3^+CD19^+ T cells.\nas §1, with “66:” for “65A-B:”, “D330E” for “wild-type”, “SFG-iCasp9-D330E-2A-ΔCD19” for “SFG-iCasp9-2A-ΔCD19”, “(A)” for “(65A) and peripheral blood (65B)”"}, "cells": {"tested_on": "cells", "test": "AP1903 needed in vitro for effective signaling of cells", "format": "cell-based"}, "[2]": {"conditions": "cited from earlier work"}, "HEK293T/16 cells": {"tested_on": "HEK293T/16 cells", "test": "Secreted alkaline phosphatase (SEAP) reporter-based surrogate killing assay", "format": "cell-based, human", "conditions": "AP1903-independent SEAP activity, relative to wild type", "experimental": "FIG. 45 provides an analysis of SEAP assays. To examine both basal signaling and AP1903 induced activity, […] early-passage HEK293T/16 cells were co-transfected with various amount of wildtype Caspase and 500 ng of an expression plasmid that uses an SRα promoter to drive SEAP, a marker for cell viability. […] of the mixture was seeded onto each well of a 96-well plate. 100-ul of AP1903 was added at least three hours post-transfection. After addition of AP1903 for at least 24 hours, 100-ul of supernatant was transferred to a 96-well plate and heat denatured at 68 ? C for 30 minutes to inactivate endogenous alkaline phosphatases. For the assay, 4-methylumbelliferyl phosphate substrate was hydrolyzed by SEAP to 4-methylumbelliferon, a metabolite that can be excited with 364 nm and detected with an emission filter of 448 nm. Since SEAP is used as a marker for cell viability, reduced SEAP reading corresponds with increased icaspase-9 activities.\n(50A) To examine both basal signaling and AP1903-induced CaspaClDe activity, 10^6 early-passage HEK293T/17 cells were co-transfected with 2 μg of inducible caspase variants along with 500 ng of an expression plasmid using an SRα promoter to transcriptionally regulate SEAP, a surrogate marker for cell viability. 200-μl of the transfection mixture containing plasmids, GeneJammer and HEK293T/17 cells in IMDM+10% FBS (without antibiotics) was seeded into each well of a 96-well plate. To induce caspase activity, 22 μl of serially diluted AP1903 was added 24 hours post-transfection. (50B) To examine basal and AP1903 induced signaling, 100 μl of supernatant was harvested 48 hours post-treatment and heat-denatured at 68° C. for 1 hour to inactivate endogenous alkaline phosphatases. For the assay, 4-methylumbelliferyl phosphate (4-MUP) substrate was hydrolyzed by SEAP to 4-methylumbelliferon, a metabolite with peak excitation at 364 nm and peak emission at 448 nm. Since SEAP is used as a surrogate marker for cell viability, a reduced SEAP reading corresponds to increased caspase-9 activity.\nEarly passage HEK293T/16 cells (ATCC, Manassas, Va.) were maintained in IMDM, GlutaMAX™ (Life Technologies, Carlsbad, Calif.) supplemented with 10% FBS, 100 U/mL penicillin, and 100 […] until transfection in a humidified, 37° C., 5% CO2/95% air atmosphere. Cells in logarithmic-phase growth were transiently transfected with 800 ng to 2 μg of expression plasmid encoding iCasp9 mutants and 500 ng of an expression plasmid encoding SRα promoter driven SEAP per million cells in 15-mL conical tubes. […] GeneJammer® Transfection Reagent at a ratio of 3 μl per ug of plasmid DNA was used to transiently transfect HEK293T/16 cells in the absence of antibiotics. 100 μl or 2 mL of the transfection mixture was added to each well in 96-well or 6-well plate, respectively. For SEAP assays, log dilutions of AP1903 were added after a minimum 3-hour incubation post-transfection. For western blots, cells were incubated for 20 minutes with AP1903 (10 nM) before harvesting.\nTwenty-four to forty-eight hours after AP1903 treatment, ˜100 μl of supernatants were harvested into a 96-well plate and assayed for SEAP activity as described. Briefly, after 65° C. heat denaturation for 45 minutes to reduce background caused by endogenous (and serum-derived) alkaline phosphatases that are sensitive to heat, 5 μl of supernatants was added to 95 μl of PBS and added to 100 μl of substrate buffer, containing 1 μl of 100 mM 4-methylumbelliferyl phosphate (4-MUP; Sigma, St. Louis, Mo.) re-suspended in 2 M diethanolamine. Hydrolysis of 4-MUP by SEAP produces a fluorescent […] with excitation/emission (355/460 nm), which can be easily measured. Assays were performed in black opaque 96-well plates to minimize fluorescence leakage between wells (FIG. 45)."}, "Activated T cells": {"tested_on": "Activated T cells", "test": "Control of proliferation of iCasp9-mutant-transduced T cells over 10 days", "format": "cell-based", "conditions": "AP1903 on days 0 and 4", "description": "FIG. 63: iCasp9 mutants with lower sensitivity to AP1903 still control T cell proliferation in vitro. Activated T cells were transduced with retrovirus containing iCasp9 mutants and treated with AP1903 (arrow) on days 0 and 4 and subsequently enumerated for 10 days."}}, "note": "Where a chain is given by its changes, count along the chain named. Names may count otherwise. “Also recorded” adds a separate entry of the source. Where two headings read alike, the source gives them in different places."}
{"molecule": "CC[C@H](C(=O)N1CCCC[C@H]1C(=O)O[C@H](CCc1ccc(OC)c(OC)c1)c1cccc(OCC(=O)NCCNC(=O)COc2cccc([C@@H](CCc3ccc(OC)c(OC)c3)OC(=O)[C@@H]3CCCCN3C(=O)[C@@H](CC)c3cc(OC)c(OC)c(OC)c3)c2)c1)c1cc(OC)c(OC)c(OC)c1", "note": "(relative stereo) [AP1903, 2-Piperidinecarboxylic acid, 1-[(2S)-1-oxo-2-(3,4,5-trimethoxyphenyl)butyl]-, 1,2-ethanediylbis[imino(2-oxo-2,1-ethanediyl)oxy-3,1-phenylene[(1R)-3-(3,4-dimethoxyphenyl)propylidene]] ester, [2S-[1(R*),2R*[S*[S*[1(R*),2R*]]]]]-(9Cl)]", "values": [{"measurement": "Cmax", "setting": "[1]", "result": "100 to 1000", "unit": "nM"}, {"measurement": "effect of a single dose on GvHD-causing and virus specific T cells", "setting": "CD3+ΔCD19+ cells; human, in vivo", "result": "can reduce or eliminate the subpopulation of T cells causing GvHD, but can spare virus specific CTLs"}, {"measurement": "further reduction of CD3+ΔCD19+ cells", "setting": "CD3+ΔCD19+ cells; within 24 hours", "result": "additional log killing"}, {"measurement": "dose sufficient to eliminate most modified T cells in vivo", "setting": "human CD3+CD19+ T cells", "result": 0.5, "unit": "mg/kg"}, {"measurement": "amount needed in vitro for effective signaling of cells", "setting": "cells", "result": "10 to 100", "unit": "nM"}, {"measurement": "safety and tolerability in healthy volunteers", "setting": "[2]; 0.01 mg/kg to 1.0 mg/kg dose range, listed as AP1903 for Injection", "result": "safe and well tolerated at all dose levels"}, {"measurement": "relation of plasma levels to dose", "setting": "[2]; 0.01-1.0 mg/kg", "result": "directly proportional to dose"}, {"measurement": "plasma level as % of maximal concentration", "setting": "[2]; 2 hours post-dose", "result": "~7", "unit": "%"}, {"measurement": "plasma level as % of maximal concentration", "setting": "[2]; 10 hours post-dose", "result": "~1", "unit": "%"}, {"measurement": "well-tolerated doses", "setting": "[2]; Phase I study", "result": "up to 1 mg/kg"}]}
{"molecule": "B1", "values": [{"measurement": "basal activity / basal signaling (in words)", "setting": "HEK293T/16 cells", "result": "lower basal signaling; also recorded: lowered basal activity"}, {"measurement": "control of T cell proliferation and survival within 10 days (in words)", "setting": "Activated T cells", "result": "can kill target T cells indistinguishable from wildtype caspase-9 polypeptide or D330A within 10 days"}]}
{"molecule": "B2", "values": [{"measurement": "basal activity / basal signaling (in words)", "setting": "HEK293T/16 cells", "result": "lower basal signaling; also recorded: lowered basal activity"}]}
{"molecule": "B3", "values": [{"measurement": "basal activity / basal signaling (in words)", "setting": "HEK293T/16 cells", "result": "lower basal signaling; also recorded: lowered basal activity"}]}
{"molecule": "B4", "values": [{"measurement": "basal activity / basal signaling (in words)", "setting": "HEK293T/16 cells", "result": "lowered basal activity"}]}
{"molecule": "B5", "values": [{"measurement": "basal activity / basal signaling (in words)", "setting": "HEK293T/16 cells", "result": "lower basal activity"}]}
{"molecule": "B6", "values": [{"measurement": "basal activity / basal signaling (in words)", "setting": "HEK293T/16 cells", "result": "less basal activity than wildtype caspase-9"}]}
{"molecule": "B7", "values": [{"measurement": "basal activity / basal signaling (in words)", "setting": "HEK293T/16 cells", "result": "less basal activity than wildtype caspase-9"}]}
{"molecule": "B8", "values": [{"measurement": "basal activity / basal signaling (in words)", "setting": "HEK293T/16 cells", "result": "less basal activity than wildtype caspase-9"}]}
{"molecule": "B9", "values": [{"measurement": "basal activity / basal signaling (in words)", "setting": "HEK293T/16 cells", "result": "less basal activity than wildtype caspase-9"}]}
